Assay results as given in the supplement of paper PMC10307832.

Tests used:
Assay in all cases: relative viability (nuclei count vs DMSO), 5 days (fraction); higher = more cells survive
[1] = compound: C1COCCN1C2=NC(=NC3=C2OC4=C3C=CC=N4)C5=CC(=CC=C5)NC(=O)C6=CN=C(C=C6)N + COc1cccc2cc(-c3nc([C@H]4CC[C@H](C(=O)O)CC4)n4ncnc(N)c34)[nH]c12 [OSI-027] (partner 0.5 µM)
In short: (§1)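 Nuclei were stained with Hoechst during a one-step fixation (final 0.05% Triton X-100, 1% formaldehyde, 1 ug/ml Hoechst) carried out 5 days after dosing, then counted on 4× images. The cells, lung cancer lines in 1536-well plates, had been dosed by pin tool the day after seeding with one drug alone or a fixed anchor-drug dose plus five library-drug doses (not always all listed) in √10 steps. Relative viability is the nuclei count in treated wells divided by that in vehicle wells, and each value is the median of duplicate plates.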

[2] = compound: C1COCCN1C2=NC(=NC3=C2OC4=C3C=CC=N4)C5=CC(=CC=C5)NC(=O)C6=CN=C(C=C6)N + Nc1nc2[nH]cc(CCc3ccc(C(=O)N[C@@H](CCC(=O)O)C(=O)O)cc3)c2c(=O)[nH]1 [Pemetrexed] (partner 0.2 µM)
In short: as §1

[3] = compound: C1COCCN1C2=NC(=NC3=C2OC4=C3C=CC=N4)C5=CC(=CC=C5)NC(=O)C6=CN=C(C=C6)N + O=C(CCCCCCC(=O)Nc1ccccc1)NO [Vorinostat] (partner 1 µM)
In short: as §1

[4] = compound: CN1CCC(CNc2ccc3ncc(-c4cccc(OC(F)(F)F)c4)n3n2)CC1 [SGI-1776] + CS(=O)(=O)N1CCN(Cc2cc3nc(-c4cccc5[nH]ncc45)nc(N4CCOCC4)c3s2)CC1 [Pictilisib] (partner 1 µM)
In short: as §1

Cell Line	relative viability ([1]; first compound 0.02 µM)	relative viability ([1]; first compound 0.2 µM)	relative viability ([1]; first compound 0.6325 µM)	relative viability ([1]; first compound 2 µM)	relative viability ([2]; first compound 0.02 µM)	relative viability ([2]; first compound 0.06325 µM)	relative viability ([2]; first compound 0.2 µM)	relative viability ([2]; first compound 0.6325 µM)	relative viability ([2]; first compound 2 µM)	relative viability ([3]; first compound 0.02 µM)	relative viability ([3]; first compound 0.06325 µM)	relative viability ([3]; first compound 0.2 µM)	relative viability ([3]; first compound 0.6325 µM)	relative viability ([3]; first compound 2 µM)	relative viability ([4]; first compound 0.08 µM)	relative viability ([4]; first compound 0.8 µM)	relative viability ([4]; first compound 2.53 µM)	relative viability ([4]; first compound 8 µM)	relative viability ([1]; first compound 0.06325 µM)
NCI-H23	0.605	0.435	0.351	0.398	0.836	0.721	0.529	0.493	0.344	0.609	0.635	0.5	0.473	0.468	0.558	0.448	0.449	0.387	
NCI-H322M	0.526	0.544	0.49	0.416	0.685	0.588	0.565	0.628	0.621	0.823	0.85	0.851	0.904	0.764	0.571	0.483	0.473	0.445	0.523
NCI-H358		0.702	0.601	0.443	0.176	0.182	0.137	0.222	0.135	0.727	0.723	0.688	0.644	0.332	0.37	0.375	0.334	0.253	0.832
NCI-H441	0.588	0.507	0.58	0.327	0.278	0.251	0.248	0.245	0.251	0.759	0.918	0.798	0.701	0.377	0.399	0.62	0.564	0.299	0.511
NCI-H460	0.578	0.505	0.237	0.185	0.0585	0.0645	0.0766	0.0835	0.0565	1.51	0.788	0.907	0.559	0.221	0.376	0.343	0.42	0.289	0.639
NCI-H520	0.263	0.233	0.263	0.211	0.653	0.752	0.655	0.685	0.351	0.74	0.747	0.77	0.699	0.451	0.319	0.323	0.225	0.204	0.257
NCI-H596	0.674	0.65	0.526	0.373	0.569	0.488	0.523	0.467	0.393	0.618	0.551	0.642	0.489	0.465	0.43	0.383	0.365	0.298	0.735
NCI-H647	0.572	0.748	0.442	0.306	0.175	0.155	0.141	0.138	0.114	0.625	0.757	0.502	0.433	0.29	0.474	0.434	0.247	0.219	0.722
NCI-H650	0.545	0.488	0.474	0.478	0.95	0.918	0.945	0.835	0.782	0.495	0.412	0.474	0.515	0.392	0.958	0.731	0.868	0.644	0.511
NCI-H661	0.709	0.659	0.619	0.539	0.923	0.918	0.889	0.921	0.602	0.766	0.803	0.769	0.806	0.529	0.526	0.429	0.363	0.317	0.7
NCI-H838	0.348	0.348	0.31	0.278	0.257	0.246	0.25	0.242	0.167	0.725	0.754	0.676	0.646	0.5	0.446	0.398	0.414	0.277	0.381
NCI-H1355	0.397	0.336	0.359	0.363	1.04	1.05	1.01	0.944	0.924	0.695	0.737	0.614	0.598	0.538	0.488	0.494	0.439	0.364	0.401
NCI-H1395	0.562	0.523	0.604	0.519	0.941	0.87	0.735	0.643	0.692	0.66	0.727	0.542	0.637	0.595	0.591	0.64	0.542	0.494	0.49
NCI-H1437	0.816	0.791	0.6	0.535	0.339	0.311	0.308	0.366	0.254	0.82	0.919	0.818	0.816	0.432	0.435	0.517	0.367	0.219	0.844
NCI-H1650	0.657	0.434	0.548	0.397	0.391	0.384	0.377	0.376	0.3	0.512	0.611	0.406	0.642	0.354	0.586	0.542	0.355	0.146	0.617
NCI-H1651	0.643	0.703	0.617	0.472	0.615	0.581	0.572	0.599	0.31	0.382	0.595	0.563	0.537	0.529	0.671	0.559	0.421	0.432	0.812
NCI-H1666	0.949	0.79	0.777	0.546	0.861	0.812	0.699	0.749	0.546	1.07	1.09	0.966	0.736	0.865	0.568	0.403	0.404	0.313	0.816
